The values below come from ChEMBL document CHEMBL5096178, “Synthesis and Biological Evaluation of Natural-Product-Inspired, Aminoalkyl-Substituted 1-Benzopyrans as Novel Antiplasmodial Agents” (J Med Chem, 2021).

Converted amounts (≈) assume the structure as drawn.

The nature of data set [1]: Drug metabolism in mouse liver microsomes assessed as 2,2-dimethyl-6-((3-phenylpropylamino)methyl)chroman-7-ol metabolite formation incubated for 90 mins in presence of NADPH/UDPGA by LC-MS analysis. It counts as ADME, Microsome. To be noted: 1.5 h.
Data set [2] in a line: Displacement of [3H]-(+)-pentazocine from Sigma1 receptor derived from pig brain assessed as inhibition constant measured after 120 mins by scintillation counter analysis. It counts as tissue-based, Sus scrofa. In general terms: Displacement assays read how much labelled ligand stays bound in the presence of the test substance.
Data set [3] deals with Plasmodium berghei. Description: Antiplasmodial activity against GFP-transfected Plasmodium berghei ANKA infected in NMRI mouse assessed as parasitemia reduction at 30 mg/kg, ip administered for 4 consecutive days measured after 24 hrs by FACS analysis relative to control. Details: scale not given: the % may be the effect or the level left; call rule not given here. It counts as functional. Background: Flow cytometry measures light scatter and fluorescence of single cells or particles in a stream.

Data set [4] deals with Plasmodium falciparum. The data set can be described thus: Inhibition of Plasmodium falciparum DHODH using DCIP as substrate at 10 uM relative to control.
For data set [5], the system named is Plasmodium falciparum. The data set can be described thus: Inhibition of Plasmodium falciparum DHODH using DCIP as substrate at 50 uM relative to control.
Data set [6] can be described thus: Drug metabolism in NMRI mouse infected with GFP-transfected Plasmodium berghei ANKA assessed as 2,2-dimethyl-6-((3-phenylpropylamino)methyl)chroman-7-ol metabolite formation administered orally for 4 consecutive days measured after 1 hr by LC-MS analysis. It counts as ADME. To be noted: in vivo, po, 97 h.
Data set [7] in a line: Drug metabolism in NMRI mouse infected with GFP-transfected Plasmodium berghei ANKA assessed as glucuronic acid conjugated metabolite formation administered intraperitoneally for 4 consecutive days measured after 1 hr by LC-MS analysis. To be noted: in vivo, ip, 97 h. Format: ADME.
Data set [8] relates to Plasmodium falciparum. Description: Inhibition of Plasmodium falciparum DHODH assessed as residual activity using DCIP as substrate at 50 uM relative to control.
Data set [9] can be described thus: Drug metabolism in NMRI mouse infected with GFP-transfected Plasmodium berghei ANKA assessed as glucuronic acid conjugated metabolite formation administered orally for 4 consecutive days measured after 1 hr by LC-MS analysis. It counts as ADME. To be noted: in vivo, po, 97 h.
In data set [10] the test system is Plasmodium falciparum. Description: Inhibition of Plasmodium falciparum DHODH assessed as residual activity using DCIP as substrate at 10 uM relative to control.
The subject of data set [11] is Plasmodium berghei. The data set can be described thus: Antiplasmodial activity against GFP-transfected Plasmodium berghei ANKA infected in NMRI mouse assessed as parasitemia reduction at 60 mg/kg, po administered for 4 consecutive days measured after 24 hrs by FACS analysis relative to control. It counts as functional. Also on record: scale not given: the % may be the effect or the level left.

For another data set, the system named is Trypanosoma cruzi. Description: Antiprotozoal activity against Trypanosoma cruzi Tulahuen C4 intracellular amastigote infected in rat L6 cells assessed as parasite growth inhibition incubated for 96 hrs in presence of CPRG/Nonidet by photometry. To be noted: Tulahuen C4, L6, 96 h. It counts as functional, organism-based.
For data set [12], the system named is Plasmodium falciparum. Description: Antiprotozoal activity against erythrocytic stage Plasmodium falciparum NF54 assessed as parasite growth inhibition incubated for 48 hrs by [3H]hypoxanthine incorporation assay. Format: functional, organism-based.
Data set [13] can be described thus: Drug concentration in plasma of NMRI mouse infected with GFP-transfected Plasmodium berghei ANKA administered intraperitoneally for 4 consecutive days measured after 1 hr by LC-MS analysis. Format: ADME. To be noted: ip, 97 h.
Data set [14] in a line: Selectivity index, ratio of IC50 for rat L6 cells to IC50 for Trypanosoma brucei rhodesiense STIB 900 bloodstream trypomastigote. Format: toxicity. To be noted: read-out: Ratio IC50.
The nature of data set [15]: Drug metabolism in NMRI mouse infected with GFP-transfected Plasmodium berghei ANKA assessed as (2R,3R,4S,5S,6R)-2-(2,2-dimethyl-6-((3-phenylpropylamino)methyl)chroman-7-ylperoxy)-6-(hydroxymethyl)tetrahydro-2H-pyran-3,4,5-triol metabolite formation administered intraperitoneally for 4 consecutive days measured after 1 hr by LC-MS analysis. It counts as ADME. To be noted: in vivo, ip, 97 h.

Data set [16] is described as follows: Selectivity index, ratio of IC50 for rat L6 cells to IC50 for erythrocytic stage Plasmodium falciparum NF54. Format: toxicity. To be noted: read-out: Ratio IC50.
Data set [17] is described as follows: Selectivity index, ratio of IC50 for rat L6 cells to IC50 for Trypanosoma cruzi Tulahuen C4 intracellular amastigote infected in rat L6 cells. Format: toxicity, cell-based. To be noted: read-out: Ratio IC50.
Data set [18] can be described thus: Drug metabolism in NMRI mouse infected with GFP-transfected Plasmodium berghei ANKA assessed as 2,2-dimethyl-6-((3-phenylpropylamino)methyl)chroman-7-ol metabolite formation administered intraperitoneally for 4 consecutive days measured after 1 hr by LC-MS analysis. Format: ADME. To be noted: in vivo, ip, 97 h.
A short description of data set [19]: Drug metabolism in mouse liver microsomes assessed as (2R,3R,4S,5S,6R)-2-(2,2-dimethyl-6-((3-phenylpropylamino)methyl)chroman-7-ylperoxy)-6-(hydroxymethyl)tetrahydro-2H-pyran-3,4,5-triol metabolite formation incubated for 90 mins in presence of NADPH/UDPGA by LC-MS analysis. To be noted: 1.5 h. It counts as ADME, Microsome.
Data set [20] in a line: Drug metabolism in NMRI mouse infected with GFP-transfected Plasmodium berghei ANKA assessed as (2R,3R,4S,5S,6R)-2-(2,2-dimethyl-6-((3-phenylpropylamino)methyl)chroman-7-ylperoxy)-6-(hydroxymethyl)tetrahydro-2H-pyran-3,4,5-triol metabolite formation administered orally for 4 consecutive days measured after 1 hr by LC-MS analysis. Format: ADME. To be noted: in vivo, po, 97 h.

In data set [21] the test system is Trypanosoma brucei rhodesiense. Description: Antiprotozoal activity against Trypanosoma brucei rhodesiense STIB 900 bloodstream trypomastigote assessed as parasite growth inhibition incubated for 70 hrs by resazurin dye based assay. Format: functional, organism-based. To be noted: STIB 900, 70 h. For orientation: Alamar Blue is a resazurin reagent that responds to reducing activity.

Data set [22] is described as follows: Drug metabolism in mouse liver microsomes assessed as glucuronic acid conjugated metabolite formation incubated for 90 mins in presence of NADPH/UDPGA by LC-MS analysis. It counts as ADME, Microsome. To be noted: 1.5 h.
Data set [23] can be described thus: Cytotoxicity against rat L6 cells assessed as cell growth inhibition incubated for 70 hrs by Alamar Blue staining based […]. It counts as toxicity.
In a further data set the test system is Leishmania donovani. The data set can be described thus: Antiprotozoal activity against Leishmania donovani MHOM/ET/67/L82 axenic amastigote assessed as parasite growth inhibition incubated for resazurin dye based fluorometry. It counts as functional, organism-based.
A short description of data set [24]: Drug concentration in plasma of NMRI mouse infected with GFP-transfected Plasmodium berghei ANKA administered orally for 4 consecutive days measured after 1 hr by LC-MS analysis. Format: ADME. To be noted: po, 97 h.
A short description of data set [25]: Selectivity index, ratio of IC50 for rat L6 cells to IC50 for Leishmania donovani MHOM/ET/67/L82 axenic amastigote. Format: toxicity. To be noted: read-out: Ratio IC50.
For data set [26], the system named is Plasmodium falciparum. The data set can be described thus: Antimalarial activity against drug-sensitive Plasmodium falciparum 3D7 assessed as parasite growth inhibition incubated for 48 hrs by [3H]hypoxanthine incorporation assay. Format: functional, organism-based.
Data set [27] concerns Plasmodium falciparum. The data set can be described thus: Antimalarial activity against chloroquine-sensitive Plasmodium falciparum D6 assessed as parasite growth inhibition by [3H]hypoxanthine growth inhibition assay. Format: functional, organism-based.

The Ki is a dissociation constant, usually derived from enzyme kinetics or from competition with a known ligand. As a reminder, the inhibition is the drop in the measured response relative to a control, in per cent. One may read the IC50 as the point on the concentration scale where inhibition reaches its midpoint. Consider `CC1(C)CCc2cc(CNCCCc3ccccc3)c(O)cc2O1`, for which the Drug metabolism result in data set [1], in data set [6], in [7], in [9], in [15] and in data set [18] was “Metabolite_Detected” each time. For the same compound, the Drug metabolism entry in data set [19], in [20] and in data set [22] was “Metabolite_Detected” each time. The inhibition constant Ki in [2] came to 74 nM. Also, the Activity in the data set on Plasmodium berghei [3] was determined as 66%; in the data set on Plasmodium falciparum [8] it was 90%; in the data set on Plasmodium falciparum [10], 106%; with Plasmodium berghei [11] it was 74%. Moreover, the inhibition with Plasmodium falciparum [4] was 3%; with Plasmodium falciparum [5], 1%. Also, the 50% inhibitory concentration (IC50) in the data set on Trypanosoma cruzi was 15000 nM; in the data set on Plasmodium falciparum [12] it was 38 nM; in data set [21], 410 nM; in the data set on Leishmania donovani it was 134000 nM. The Drug uptake result in data set [13] and in data set [24] was “Active” in each case. Further, the selectivity ratio in data set [14] amounted to 14; in [16], 171; in data set [17], 0.4; in [25] it was 0.05. Also, the IC50 at 70 h in data set [23] was 6500 nM.
In the case of `CC(C)(C)c1cc(O)c(CN)c(C(C)(C)C)c1`, the concentration for half-maximal inhibition (IC50) with Plasmodium falciparum [26] stood at 30 µg/mL (≈ 127 µM).
As for `CCCCNCc1cc(C(C)(C)C)cc(-c2cnc(C(F)(F)F)c(F)c2)c1O`, the IC50 in the data set on Plasmodium falciparum [27] was found to be 9 nM.
